In PMC10413920, “Design, synthesis and in vitro biological studies of novel triazoles with potent and broad-spectrum antifungal activity” (Journal of Enzyme Inhibition and Medicinal Chemistry, 2023):
In brackets after ≈: the same amount, converted by molar mass.

Tests used:
Candida glabrata 537 = assay: Broth microdilution MIC (CLSI M27-A3/M60); type: cell-based; settings: MIC80 (≥80% growth inhibition), 30 °C, 24 h; for MIC: Nakaseomyces glabratus, 537, read-out: MIC, C. gla 537
Description: (§1) According to the Clinical Laboratory Standards Institute (CLSI, M27-A3 and M60) protocols[10]^,[11], the target compounds were evaluated for their in vitro antifungal activity by the broth microdilution method. The fungi strains used in this study were obtained from the American Type Culture Collection (ATCC) and Changhai Hospital (Shanghai, China). […] Fluconazole (FCZ) and ketoconazole (KCZ) were used as positive controls.
(§2) All fungal strains used in this study were obtained from the American Type Culture Collection (ATCC) and Changhai Hospital (Shanghai, China). All strains were cultivated by shaking (200 rpm) at 30 °C in YEPD medium (1% yeast extract, 2% peptone, and 2% dextrose) to an exponential growth stage.
(§3) Fungal cells at the exponential growth stage were collected and resuspended in RPMI 1640 medium, then diluted to 1 × 10^3 cells/mL. The suspension of fungal cells was inoculated into 96-well plates. Antifungal compounds were serially added and diluted in a 2-fold series to a final concentration range of 64.0–0.125 µg/mL. RPMI 1640 medium with no fungal cells served as a blank control. The fungal suspensions containing DMSO and FCZ served as the negative control and the positive control, respectively. C. albicans, C. glabrata, C. parapsilosis, C. tropicalis, and C. auris cells were incubated at 30 °C for 24 h, C. neoformans and A. fumigatus cells were incubated at 30 °C for 48 h. The optical density (OD630) at 630 nm was measured by a spectrophotometer, which was used to calculate the MIC80 values of each compound.

Candida albicans SC5314 = assay: Broth microdilution MIC (CLSI M27-A3/M60); type: cell-based; settings: MIC80 (≥80% growth inhibition), 30 °C, 24 h; for MIC: Candida albicans, SC5314, read-out: MIC, C. alb SC5314
Description: as §1, §2, §3

[1] = tested on: Aspergillus fumigatus 7544; assay: Broth microdilution MIC (CLSI M27-A3/M60); type: cell-based; settings: MIC80 (≥80% growth inhibition), 30 °C, 48 h; for MIC: Aspergillus fumigatus, 7544, read-out: MIC, A. fum 7544
Description: as §1, §2, §3

[2] = tested on: Cryptococcus neoformans 22-21; assay: Broth microdilution MIC (CLSI M27-A3/M60); type: cell-based; settings: 2221, MIC80 (≥80% growth inhibition), 30 °C, 48 h, read-out: MIC, C. neo 22-21
Description: as §1, §2, §3

[3] = tested on: Candida parapsilosis 22-20; assay: Broth microdilution MIC (CLSI M27-A3/M60); type: cell-based; settings: Lodderomyces parapsilosis, 2220; MIC80 (≥80% growth inhibition), 30 °C, 24 h; read-out: MIC, C. par 22-20
Description: as §1, §2, §3

Candida tropicalis 8915 = assay: Broth microdilution MIC (CLSI M27-A3/M60); type: cell-based; settings: MIC80 (≥80% growth inhibition), 30 °C, 24 h; for MIC: Candida tropicalis, 8915, read-out: MIC, C. tro 8915
Description: as §1, §2, §3

in vitro = settings: rabbit
[4] = tested on: FCZ-resistant C. albicans 901; assay: MIC against FCZ-resistant strains, microdilution; type: cell-based, Candida albicans; settings: FCZ-resistant isolate, 30 °C, 24 h; for MIC: Candida albicans, read-out: MIC, C.alb 901
Source text: (§4) The alarming impact of drug resistance amongst Candida spp. is an emerging problem globally. Rising rates of azole-resistant Candida spp. are associated with an increase in treatment failures. Candida auris is characterised by a high level of multi-drug resistance. It has been reported in more than 45 countries and has caused serious hospital outbreaks with crude mortality rates as high as 72%[13]^,[14].
as §2
as §3, with “The fungal suspensions containing DMSO and FCZ served as the negative control and the positive control, respectively.” left out

C. auris 919 = assay: MIC against FCZ-resistant strains, microdilution; type: cell-based, Candida auris; settings: Candidozyma auris, FCZ-resistant isolate, 30 °C, 24 h
Source text: as §4, §2
as §3, with “The fungal suspensions containing DMSO and FCZ served as the negative control and the positive control, respectively.” left out

C. auris 918 = assay: MIC against FCZ-resistant strains, microdilution; type: cell-based, Candida auris; settings: Candidozyma auris, FCZ-resistant isolate, 30 °C, 24 h
Source text: as §4, §2
as §3, with “The fungal suspensions containing DMSO and FCZ served as the negative control and the positive control, respectively.” left out

C. albicans SC5314 = assay: GC-MS analysis of sterol composition; type: cell-based, Candida albicans; settings: 8 µg/mL, 8 h; for ergosterol content of the fungal cells (of total sterols): control 89.85%
Description: As the major fungal sterol, ergosterol accounted for 89.85% of the total sterols in the control group, zymosterol accounted for 8.80%, in addition to several other sterols. […] In contrast, the content of other sterols in the bypass pathway increased.
Overnight cultured C. albicans SC5314 fungal cells were collected and diluted to 5 × 10^6 cells/mL in YEPD medium. […] The fungal cells were cultured by shaking (200 rpm) at 30 °C. After incubation for 8 h, the fungal suspension was centrifuged (3000 rpm, 1 min), harvested and washed twice with distilled water carefully. The saponifying agent (6 ml of 15% NaOH resolved in 90% ethanol) was added to the precipitate. After 1 h of saponification at 80 °C, sterols were extracted with hexane (3 × 5 ml). The combined extracts were evaporated in a water bath and washed once with water. The residue was dried in a 60 °C water bath to obtain the total sterols. Finally, the total sterol was analysed by GC-MS and the structures of each sterol content were identified and compared with the National Institute of Standards and Technology (NIST) database.

| Structure (SMILES) | MIC (Candida glabrata 537) [µg/mL] | MIC (Candida albicans SC5314) [µg/mL] | MIC [1] [µg/mL] | MIC [2] [µg/mL] | MIC [3] [µg/mL] | MIC (Candida tropicalis 8915) [µg/mL] | MIC [4] [µg/mL] | MIC (C. auris 919) [µg/mL] | MIC (C. auris 918) [µg/mL] | other results |
| --- | --- | --- | --- | --- | --- | --- | --- | --- | --- | --- |
| C[C@@H]1[C@H](O)[C@@H](C)/C=C/C=C/C=C/C=C/C=C/C=C/C=C/[C@H](O[C@@H]2O[C@H](C)[C@@H](O)[C@H](N)[C@@H]2O)C[C@@H]2O[C@](O)(C[C@@H](O)C[C@@H](O)[C@H](O)CC[C@@H](O)C[C@@H](O)CC(=O)O[C@H]1C)C[C@H](O)[C@H]2C(=O)O [AmB, amphotericin B] |  |  |  |  |  |  |  |  |  | hemolysis at 1 h, 16 µg/mL (in vitro): 4.87%; hemolysis at 1 h, 32 µg/mL (in vitro): 57.7%; hemolysis at 1 h, 64 µg/mL (in vitro): 100% |
| C[C@@H](NC(=O)CCc1cc(F)cc(F)c1)[C@](O)(Cn1cncn1)c1ccc(F)cc1F [A17] | ≤ 0.125 | ≤ 0.125 | 32 (≈ 73.3 µM) | 0.5 (≈ 1.15 µM) | 0.5 (≈ 1.15 µM) | 16 (≈ 36.7 µM) | 4 (≈ 9.17 µM) | > 64 | > 64 |  |
| C[C@@H](NC(=O)CCc1ccc(Cl)c(Cl)c1)[C@](O)(Cn1cncn1)c1ccc(F)cc1F [A16] | ≤ 0.125 | ≤ 0.125 | 64 (≈ 136 µM) | ≤ 0.125 | 0.5 (≈ 1.07 µM) | 8 (≈ 17 µM) | 2 (≈ 4.26 µM) | > 64 | > 64 |  |
| C[C@@H](NC(=O)CCc1ccc(F)c(F)c1)[C@](O)(Cn1cncn1)c1ccc(F)cc1F [A14] | ≤ 0.125 | ≤ 0.125 | 64 (≈ 147 µM) | 1 (≈ 2.29 µM) | 1 (≈ 2.29 µM) | 64 (≈ 147 µM) | 4 (≈ 9.17 µM) | > 64 | > 64 |  |
| CC(=O)c1ccc(CCC(=O)N[C@H](C)[C@](O)(Cn2cncn2)c2ccc(F)cc2F)cc1 [A11] | 1 (≈ 2.26 µM) | 2 (≈ 4.52 µM) | > 64 | 1 (≈ 2.26 µM) | 4 (≈ 9.04 µM) | > 64 |  |  |  |  |
| C[C@@H](NC(=O)CCc1ccc(Cl)c(F)c1)[C@](O)(Cn1cncn1)c1ccc(F)cc1F [A15] | ≤ 0.125 | ≤ 0.125 | 32 (≈ 70.7 µM) | 0.5 (≈ 1.1 µM) | 0.5 (≈ 1.1 µM) | 8 (≈ 17.7 µM) | 8 (≈ 17.7 µM) | 64 (≈ 141 µM) | 64 (≈ 141 µM) |  |
| C[C@@H](NC(=O)CCc1ccccc1)[C@](O)(Cn1cncn1)c1ccc(F)cc1F [A1] | ≤ 0.125 | ≤ 0.125 | 64 (≈ 160 µM) | 0.25 (≈ 0.624 µM) | 0.5 (≈ 1.25 µM) | > 64 | 1 (≈ 2.5 µM) | 32 (≈ 79.9 µM) | 64 (≈ 160 µM) | proportion of 14α-methylfecosterol (of total sterols) (C. albicans SC5314): 31.11%; proportion of eburicol (of total sterols) (C. albicans SC5314): 19.29%; proportion of lanosterol (of total sterols) (C. albicans SC5314): 23.42%; proportion of obtusifoliol (of total sterols) (C. albicans SC5314): 20.09%; ergosterol content of the fungal cells (of total sterols) (C. albicans SC5314): 5.44%; MIC, C. gla 537 (Candida glabrata 537): ≤ 0.125 µg/mL; MIC, C. alb SC5314 (Candida albicans SC5314): ≤ 0.125 µg/mL; MIC, C.alb 901 [4]: 1.0 µg/mL (≈ 2.5 µM); hemolysis at 1 h, 16 µg/mL (in vitro): 0.95% |
| C[C@@H](NC(=O)CCc1ccc(C(C)(C)C)cc1)[C@](O)(Cn1cncn1)c1ccc(F)cc1F [A9] | ≤ 0.125 | ≤ 0.125 | 32 (≈ 70.1 µM) | ≤ 0.125 | 0.25 (≈ 0.548 µM) | > 64 | 32 (≈ 70.1 µM) | 32 (≈ 70.1 µM) | > 64 | ergosterol content of the fungal cells (of total sterols) (C. albicans SC5314): 5.17%; MIC, C. alb SC5314 (Candida albicans SC5314): ≤ 0.125 µg/mL; hemolysis at 1 h, 16 µg/mL (in vitro): 0.78% |

Second part, led by results:

| MIC (Candida glabrata 537) [µg/mL] | MIC (Candida albicans SC5314) [µg/mL] | MIC [1] [µg/mL] | MIC [2] [µg/mL] | MIC [3] [µg/mL] | MIC (Candida tropicalis 8915) [µg/mL] | MIC [4] [µg/mL] | MIC (C. auris 919) [µg/mL] | MIC (C. auris 918) [µg/mL] | Structure (SMILES) | other results |
| --- | --- | --- | --- | --- | --- | --- | --- | --- | --- | --- |
| 1 (≈ 2.41 µM) | 64 (≈ 154 µM) | > 64 | 8 (≈ 19.3 µM) | 16 (≈ 38.5 µM) | > 64 |  |  |  | Cc1ccncc1CCC(=O)N[C@H](C)[C@](O)(Cn1cncn1)c1ccc(F)cc1F [A23] |  |
| 2 (≈ 4.81 µM) | 2 (≈ 4.81 µM) | > 64 | 4 (≈ 9.63 µM) | 4 (≈ 9.63 µM) | > 64 |  |  |  | Cc1ccc(CCC(=O)N[C@H](C)[C@](O)(Cn2cncn2)c2ccc(F)cc2F)nc1 [A21] |  |
| 2 (≈ 4.81 µM) | 1 (≈ 2.41 µM) | > 64 | 4 (≈ 9.63 µM) | 4 (≈ 9.63 µM) | > 64 |  |  |  | Cc1ccnc(CCC(=O)N[C@H](C)[C@](O)(Cn2cncn2)c2ccc(F)cc2F)c1 [A20] |  |
| 4 (≈ 9.63 µM) | 16 (≈ 38.5 µM) | > 64 | 32 (≈ 77 µM) | 32 (≈ 77 µM) | > 64 |  |  |  | Cc1cncc(CCC(=O)N[C@H](C)[C@](O)(Cn2cncn2)c2ccc(F)cc2F)c1 [A24] |  |
| 1 (≈ 2.41 µM) | 1 (≈ 2.41 µM) | > 64 | 2 (≈ 4.81 µM) | 2 (≈ 4.81 µM) | > 64 |  |  |  | Cc1cccnc1CCC(=O)N[C@H](C)[C@](O)(Cn1cncn1)c1ccc(F)cc1F [A19] |  |
| 1 (≈ 3.27 µM) | 0.5 (≈ 1.63 µM) | > 64 | 1 (≈ 3.27 µM) | 4 (≈ 13.1 µM) | > 64 | > 256 | > 256 | > 256 | OC(Cn1cncn1)(Cn1cncn1)c1ccc(F)cc1F [FCZ, fluconazole, reference compound] | ergosterol content of the fungal cells (of total sterols) (C. albicans SC5314): 6.08%; MIC, A. fum 7544 [1]: > 64.0 µg/mL; MIC, C. tro 8915 (Candida tropicalis 8915): > 64.0 µg/mL; hemolysis at 1 h, 16 µg/mL (in vitro): 1.3% |
| 1 (≈ 1.88 µM) | 4 (≈ 7.53 µM) | 4 (≈ 7.53 µM) | 0.125 (≈ 0.235 µM) | 0.5 (≈ 0.941 µM) | 16 (≈ 30.1 µM) |  |  |  | CC(=O)N1CCN(c2ccc(OCC3COC(Cn4ccnc4)(c4ccc(Cl)cc4Cl)O3)cc2)CC1 (stereo not shown) [KCZ, ketoconazole, reference compound] |  |
| 2 (≈ 4.81 µM) | 16 (≈ 38.5 µM) | > 64 | 16 (≈ 38.5 µM) | 64 (≈ 154 µM) | > 64 |  |  |  | Cc1ccc(CCC(=O)N[C@H](C)[C@](O)(Cn2cncn2)c2ccc(F)cc2F)cn1 [A25] |  |
